One experiment deals with SMMC-7721 cells. The experiment in a line: MTT assay, proliferation of SMMC-7721 cells. The conditions noted are these: Homo sapiens; for pIC50: SMMC-7721, 48 h. It is filed as cell-based, human. As to the method: (§1) The in vitro antitumor activities of the synthesized compounds 7a-l and 8a-l against five human cancer cells were evaluated in MTT assays using 5-fluorouracil (5-FU) and harmine as positive controls. These cells are human hepatocellular carcinoma cells (SMMC-7721 and Hep G2), human colon cancer cell lines (HCT116), human bladder carcinoma cells (EJ), and human lung cancer cells (H460).
(§2) Hepatocellular carcinoma cells (SMMC-7721 and Hep G2), Human colon cancer cell lines (HCT116), human bladder carcinoma cells (EJ) or human lung cancer cells (H460) at 10^4 cells per well were cultured in 10% FBS DMEM in 96-well flat-bottom microplates overnight. The cells were incubated in triplicate with, or without, different concentrations of each test compound for 48 h. During the last 4 h incubation, 30 μL of tetrazolium dye (MTT) solution (5 mg mL^−1) was added to each well. The resulting MTT-formazan crystals were dissolved in 150 μL DMSO, and absorbance was measured spectrophotometrically at 570 nm using an ELISA plate reader. The inhibition induced by each test compound at the indicated concentrations was expressed as a percentage. The concentration required for 50% inhibition (IC50) was calculated using the software (GraphPadPrism Version 4.03).

The test system of the next experiment is Hep G2 cells. The experiment in a line: MTT assay, proliferation of Hep G2 cells. In kind it is cell-based. The conditions noted are these: Homo sapiens, HepG2, 48 h, read-out: In vitro cytotoxicity (IC50) Hep G2. As to the method: as §1, §2
The subject of a further experiment is HCT116 cells. The experiment in a line: MTT assay, proliferation of HCT116 cells. In kind it is cell-based. The conditions noted are these: Homo sapiens, HCT-116, 48 h, read-out: In vitro cytotoxicity (IC50) HCT116. The procedure:
as §1, §2

For the next experiment, the system named is EJ cells. The experiment in a line: MTT assay, proliferation of EJ cells. In kind it is cell-based. The conditions noted are these: 48 h, EJ human bladder carcinoma cells, read-out: In vitro cytotoxicity (IC50) EJ. As to the method:
as §1, §2

Another experiment deals with H460 cells. The experiment in a line: MTT assay, proliferation of H460 cells. In kind it is cell-based. The conditions noted are these: NCI-H460, 48 h, H460 human lung cancer cells, read-out: In vitro cytotoxicity (IC50) H460. The procedure:
as §1, §2

The mark [1] stands for this setting: read-out: In vitro cytotoxicity (IC50) SMMC-7721, MTT assay, 48 h, SMMC-7721 human hepatocellular carcinoma cells.

Each structure is given as a SMILES string. pIC50: −log10 of the molar value. Read-outs that look alike come from different tables or passages of the source.

This passage reports IC50 and inhibition results from paper PMC5099944, “Design, synthesis and biological evaluation of hybrids of β-carboline and salicylic acid as potential anticancer and apoptosis inducing agents” (Scientific Reports, 2016).

As for `Cc1ccccc1C(=O)NCCCNC(=O)c1cc2c(cn1)[nH]c1ccccc12` [7a, N-(3-(2-Methylbenzamido)propyl)-9H-pyrido[3,4-b]indole-3-carboxamide], the pIC50 in the experiment with SMMC-7721 cells (setting [1]) was 4.46; with Hep G2 cells, 4.49; with HCT116 cells it was 4.44; with EJ cells it was 4.60; with H460 cells it was 4.51.
For `Cc1ccccc1C(=O)NCCCNC(=O)c1cc2c([nH]c3ccccc32)c(C)n1` [7b, 1-Methyl-N-(3-(2-methylbenzamido)propyl)-9H-pyrido[3,4-b]indole-3-carboxamide], the pIC50 in the experiment with SMMC-7721 cells (setting [1]) is 4.56; with Hep G2 cells, 4.63; in the experiment on HCT116 cells, 4.54; in the experiment on EJ cells, 4.63; in the experiment on H460 cells, 4.52.
`COc1ccc(-c2nc(C(=O)NCCCNC(=O)c3ccccc3C)cc3c2[nH]c2ccccc23)cc1` [7c, 1-(4-Methoxyphenyl)-N-(3-(2-methylbenzamido)propyl)-9H-pyrido[3,4-b]indole-3-carboxamide]: the pIC50 in the experiment with SMMC-7721 cells (setting [1]), in the experiment on Hep G2 cells, in the experiment on HCT116 cells, in the experiment with EJ cells and with H460 cells was less than 4.30 in each case.
Regarding `Cc1ccccc1C(=O)NCCCCNC(=O)c1cc2c(cn1)[nH]c1ccccc12` [7d, N-(4-(2-Methylbenzamido)butyl)-9H-pyrido[3,4-b]indole-3-carboxamide], the pIC50 is 4.61 with SMMC-7721 cells (setting [1]); 4.72 in the experiment with Hep G2 cells; 4.67 with HCT116 cells; 4.74 with EJ cells; 4.63 in the experiment with H460 cells.
The corresponding values for `Cc1ccccc1C(=O)NCCCCNC(=O)c1cc2c([nH]c3ccccc32)c(C)n1` [7e, 1-Methyl-N-(4-(2-methylbenzamido)butyl)-9H-pyrido[3,4-b]indole-3-carboxamide] are 4.75, 4.82, 4.83, 4.88 and 4.70.
With `COc1ccc(-c2nc(C(=O)NCCCCNC(=O)c3ccccc3C)cc3c2[nH]c2ccccc23)cc1` [7f, 1-(4-Methoxyphenyl)-N-(4-(2-methylbenzamido)butyl)-9H-pyrido[3,4-b]indole-3-carboxamide], the pIC50 in the experiment with SMMC-7721 cells (setting [1]) was 4.59; in the experiment on Hep G2 cells, 4.51; with HCT116 cells, 4.49; with EJ cells, 4.53; in the experiment on H460 cells, 4.42.
The corresponding values for `Cc1ccccc1C(=O)NCCCCCNC(=O)c1cc2c(cn1)[nH]c1ccccc12` [7g, N-(5-(2-Methylbenzamido)pentyl)-9H-pyrido[3,4-b]indole-3-carboxamide] are 4.80, 4.84, 4.77, 4.82 and 4.71.
Consider `Cc1ccccc1C(=O)NCCCCCNC(=O)c1cc2c([nH]c3ccccc32)c(C)n1` [7h, 1-Methyl-N-(5-(2-methylbenzamido)pentyl)-9H-pyrido[3,4-b]indole-3-carboxamide], for which the pIC50 in the experiment with SMMC-7721 cells (setting [1]) was 4.89; with Hep G2 cells it was 4.95; in the experiment on HCT116 cells, 4.80; with EJ cells it was 4.92; in the experiment on H460 cells it was 4.88.
The corresponding values for `COc1ccc(-c2nc(C(=O)NCCCCCNC(=O)c3ccccc3C)cc3c2[nH]c2ccccc23)cc1` [7i, 1-(4-Methoxyphenyl)-N-(5-(2-methylbenzamido)pentyl)-9H-pyrido[3,4-b]indole-3-carboxamide] are 4.42, less than 4.30, 4.34, less than 4.30 and 4.56.
Regarding `Cc1ccccc1C(=O)NCCCCCCNC(=O)c1cc2c(cn1)[nH]c1ccccc12` [7j, N-(6-(2-Methylbenzamido)hexyl)-9H-pyrido[3,4-b]indole-3-carboxamide], the pIC50 in the experiment with SMMC-7721 cells (setting [1]) was 4.63; in the experiment with Hep G2 cells, 4.55; in the experiment with HCT116 cells it was 4.58; in the experiment with EJ cells it was 4.74; in the experiment with H460 cells, 4.82.
For `Cc1ccccc1C(=O)NCCCCCCNC(=O)c1cc2c([nH]c3ccccc32)c(C)n1` [7k, 1-Methyl-N-(6-(2-methylbenzamido)hexyl)-9H-pyrido[3,4-b]indole-3-carboxamide], in that order: 4.95, 4.77, 4.82, 4.86 and 4.84.
With `COc1ccc(-c2nc(C(=O)NCCCCCCNC(=O)c3ccccc3C)cc3c2[nH]c2ccccc23)cc1` [7l, 1-(4-Methoxyphenyl)-N-(6-(2-methylbenzamido)hexyl)-9H-pyrido[3,4-b]indole-3-carboxamide], the pIC50 in the experiment with SMMC-7721 cells (setting [1]), in the experiment on HCT116 cells and in the experiment on H460 cells was less than 4.30 in each case.
For the compound `O=C(NCCCNC(=O)c1ccccc1O)c1cc2c(cn1)[nH]c1ccccc12` [8a, N-(3-(2-Hydroxybenzamido)propyl)-9H-pyrido[3,4-b]indole-3-carboxamide], the pIC50 was 4.65 with SMMC-7721 cells (setting [1]); 4.72 in the experiment on Hep G2 cells; 4.70 in the experiment with HCT116 cells; 4.80 in the experiment with EJ cells; 4.59 in the experiment on H460 cells.
Regarding `Cc1nc(C(=O)NCCCNC(=O)c2ccccc2O)cc2c1[nH]c1ccccc12` [8b, N-(3-(2-Hydroxybenzamido)propyl)−1-methyl-9H-pyrido[3,4-b]indole-3-carboxamide], the pIC50 with SMMC-7721 cells (setting [1]) was 4.72; in the experiment on HCT116 cells it was 4.87; in the experiment with EJ cells, 4.82; in the experiment with H460 cells it was 4.65.
Turning to `COc1ccc(-c2nc(C(=O)NCCCNC(=O)c3ccccc3O)cc3c2[nH]c2ccccc23)cc1` [8c, N-(3-(2-Hydroxybenzamido)propyl)-1-(4-methoxyphenyl)-9H-pyrido[3,4-b]indole-3-carboxamide], the pIC50 was 4.44 in the experiment on SMMC-7721 cells (setting [1]); 4.34 in the experiment on Hep G2 cells; 4.48 in the experiment with HCT116 cells; 4.41 with EJ cells; less than 4.30 in the experiment with H460 cells.
Consider `O=C(NCCCCNC(=O)c1ccccc1O)c1cc2c(cn1)[nH]c1ccccc12` [8d, N-(4-(2-Hydroxybenzamido)butyl)-9H-pyrido[3,4-b]indole-3-carboxamide], for which the pIC50 in the experiment on SMMC-7721 cells (setting [1]) was 4.89; with Hep G2 cells, 4.93; in the experiment on HCT116 cells, 4.80; in the experiment with EJ cells it was 4.92; with H460 cells, 4.82.
The corresponding values for `Cc1nc(C(=O)NCCCCNC(=O)c2ccccc2O)cc2c1[nH]c1ccccc12` [8e, N-(4-(2-Hydroxybenzamido)butyl)−1-methyl-9H-pyrido[3,4-b]indole-3-carboxamide] are 5.10, 5.03, 5.03, 5.05 and 4.92.
For `COc1ccc(-c2nc(C(=O)NCCCCNC(=O)c3ccccc3O)cc3c2[nH]c2ccccc23)cc1` [8f, N-(4-(2-Hydroxybenzamido)butyl)-1-(4-methoxyphenyl)-9H-pyrido[3,4-b]indole-3-carboxamide], in that order: 4.70, 4.75, 4.74, 4.82 and 4.64.
Take `O=C(NCCCCCNC(=O)c1ccccc1O)c1cc2c(cn1)[nH]c1ccccc12` [8g, N-(5-(2-Hydroxybenzamido)pentyl)-9H-pyrido[3,4-b]indole-3-carboxamide]: the pIC50 was 4.97 in the experiment with SMMC-7721 cells (setting [1]); 5.04 in the experiment with Hep G2 cells; 5.04 in the experiment on HCT116 cells; 5.06 in the experiment with EJ cells; 4.90 in the experiment on H460 cells.
For `COc1ccc(-c2nc(C(=O)NCCCCCNC(=O)c3ccccc3O)cc3c2[nH]c2ccccc23)cc1` [8i, N-(5-(2-Hydroxybenzamido)pentyl)-1-(4-methoxyphenyl)-9H-pyrido[3,4-b]indole-3-carboxamide], the pIC50 in the experiment with SMMC-7721 cells (setting [1]) was 4.33; in the experiment on Hep G2 cells, 4.51; in the experiment with HCT116 cells, less than 4.30; with EJ cells, less than 4.30; in the experiment with H460 cells it was 4.41.
In the case of `COc1ccc(-c2nc(C(=O)NCCCCCCNC(=O)c3ccccc3O)cc3c2[nH]c2ccccc23)cc1` [8l, N-(6-(2-Hydroxybenzamido)hexyl)-1-(4-methoxyphenyl)-9H-pyrido[3,4-b]indole-3-carboxamide], the pIC50 in the experiment with SMMC-7721 cells (setting [1]) was less than 4.30; in the experiment with Hep G2 cells, 4.38; in the experiment on HCT116 cells it was less than 4.30; in the experiment with H460 cells it was less than 4.30.
Turning to `O=C(O)c1ccccc1O` [SA, salicylic acid], the inhibition at 25 µM in the experiment with SMMC-7721 cells (SMMC-7721, 25 μM, 48 h, MTT assay, read-out: Inhibition of SMMC-7721 cell proliferation) is roughly 15%.
For `COc1ccc2c(c1)[nH]c1c(C)nccc12` [harmine, reference compound], the pIC50 is 4.31 in the experiment on SMMC-7721 cells (read-out: In vitro cytotoxicity (IC50) SMMC-7721), 4.26 with Hep G2 cells and 4.33 in the experiment with HCT116 cells.
